pIC50: −log10 of the molar value. In brackets after ≈: the same amount, converted by molar mass. Several values for one entry are separate records, joined by “and”; a condition that tells them apart may be missing. Identical values can stand only once. Like-named read-outs stand apart in the source and are kept apart here. Values belong to the compound of their own block, whether it stands above or below them.
What was measured:
[1] = target: T1, human erythrocyte plasma membrane Ca^2+ -ATPase (Homo sapiens, UniProt P23634); experiment: Ca^2+ -ATPase assay (microplate method), absence (-CaM) and presence (+CaM) of calmodulin (Table 1A); format: biochemical
T1 construct: Calmodulin-depleted erythrocyte membranes were prepared by continuous filtration through a hollow fibre; tissue New South Wales Red Cross Transfusion Service, Sydney; host or cells: human packed red blood cells (calmodulin-depleted erythrocyte membranes)
Procedure: Natural and synthetic compounds of formula (I) were tested for their ability to influence human erythrocyte plasma membrane Ca^2+ -ATPase. The enzyme Ca^2+ -ATPase in the human red blood cell plasma membrane has previously been studied and its stimulation by calmodulin and activation by lipids and proteolysis and its primary structure have been published (see Carafoli E (1991) Calcium pump of the plasma membrane, Physiological Reviews 71, 129-153.
(§1) Calmodulin-depleted erythrocyte membranes were prepared by continuous filtration through a hollow fibre, Ashahi plasma separator as described by W S Price, B D Roufogalis, P W Kuchel (1989), A simple and inexpensive method for preparing erythrocyte membranes by filtration through a hollow-filter system, Anal. Biochem., 179, 190-193. Packed cells were obtained from the New South Wales Red Cross Transfusion Service, Sydney. The whole preparation was carried out at 4° C. 1 unit of packed red cells was washed 3 times with isotonic buffer, containing 130 mM KCl, 20 mM Tris-HCl (pH 7.4), and the cells were collected by centrifugation at 4,000 RPM. The cells were haemolysed by the buffer containing 1 mM EDTA, 10 mM Tris-Hcl (pH 7.4), 0.5 mM PMSF (phenylmethyl sulfonyl fluoride). The haemolyzate mixture was passed through the hollow fibre system until the membrane appeared white, and then washed with 10 mM potassium Hepes (pH 7.4). The membranes were collected by centrifugation at 10,000 RPM for 20 min, the membranes were resuspended in storage buffer containing 130 mM KCl, 2 mM dithiothreitol, 0.5 mM MgCl2, 20 mM potassium-Hepes (pH 7.5). The membranes with protein concentration of 1.5-5.4 mg/ml were stored at -80° C. until required.
Erythrocyte membranes were incubated at 37° C. for one hour in a total volume of 60 μl of 65 mM KCl, 50 mM HEPES (pH=7.4), 5 mM MgCl2, 50 μM CaCl2, 0.1 mM EGTA and in absence and presence of calmodulin (0.3 μM). Test compounds were dissolved in dimethyl sulfoxide DMSO and 2 μl was added to the assay mixture prior the addition of ATP. The final concentration of DMSO in the assay mixture was 3%. The reaction was started by adding 2 mM ATP (pH=7.4). After 1 hour of incubation, colouring agent (180 μl) was added and incubated at 37° C. for 1/2 hrs. The phosphate liberated to the assay medium was determined spectrometrically using a microplate reader at 750 nm. The activity of the Mg^2+ -ATPase (assayed in the absence of added CaCl2) was subtracted from the total activity assayed in the presence of Ca^2+.

[2] = tested on: brine shrimp (Artemia salina Leach); experiment: Brine shrimp toxicity bioassay; format: in vivo; conditions: for LC50: Artemia salina, read-out: LC50 brine shrimp
Procedure: There are many applications of the assay including analysis of toxic substances, anaesthetics, morphine-like substances and cocarcinogenicity of phorbol esters.
6 (K Hostettman, ed.), Academ Press, London, 1-32. DMSO solutions of the substances to be tested were added directly to the vials containing the brine shrimp. As the concentration of DMSO that we wished to use was higher than the recommended 1% v/v testing of the toxicity of the DMSO was therefore necessary.
Brine shrimp toxicity was assayed, except for some minor modifications, according to the method of McLaughlin et al as reported in Brine Shrimp: A convenient general bioassay for active plant constituents, B N Meyer, N R Ferrigni, J E Putman, L B Jacobsen, D E Nhols and J L McLaughlin. […] J L McLaughlin. […] 6 (K Hostettman, ed.), Academ Press, London, 1-32. Ten shrimp were added transferred to each of the vials and the volume adjusted to 4.9 mL. Each dose was performed in triplicate, including the control. In quick succession, the appropriate volume of additional DMSO for each dose, required to achieve a final concentration of 2%, was added before the appropriate volume of test solution. The vials were gently mixed and the time noted. After 24 hours, the number of survivors were counted and % mortality was determined.
The LC50 values were expressed in both μM and μg/mL.

[3] = target: T1, human erythrocyte plasma membrane Ca^2+ -ATPase; experiment: Ca^2+ -ATPase assay (erythrocyte membranes; Table 1); format: biochemical; conditions: for inhibition at 25 µM / inhibition at 100 µM: read-out: INHIBITION OF Ca^2+ -ATPase PERCENT (%); for Ca^2+ -ATPase inhibitory activity relative to striatol: compared with natural product striatol
Procedure: Natural and synthetic compounds of formula (I) were tested for their ability to influence human erythrocyte plasma membrane Ca^2+ -ATPase.
as §1, with “Packed” for “Calmodulin-depleted erythrocyte membranes were prepared by continuous filtration through a hollow fibre, Ashahi plasma separator as described by W S Price, B D Roufogalis, P W Kuchel (1989), A simple and inexpensive method for preparing erythrocyte membranes by filtration through a hollow-filter system, Anal. Biochem., 179, 190-193. Packed”
Erythrocyte membranes (0.071-0.098 mg/ml) were incubated at 37° C. for one hour in a total volume of 0.4 ml of 65 mM KCl, 20 mM potassium-Hepes, 5 mM MgCl2, 50 μM CaCl2, 0.1 μm calmodulin, 0.1 mM EGTA. The reaction was started by adding 2 mM ATP(pH 7.4). […] The activity of the Mg^2+ -ATPase (assayed in the absence of added CaCl2) was subtracted from the total activity assayed in the presence of Ca^2+. […] A concentrated solution of the test substances was added to the reaction medium before adding ATP.

[4] = tested on: brine shrimp (Artemia salina Leach); conditions: determined by Meyer et al.; cited from earlier work
[5] = tested on: ^45 Ca^2+ efflux from rat thoracic aorta smooth muscle cells; experiment: ^45 Ca^2+ efflux from cultured vascular smooth muscle cells; format: cell-based
Description: ^45 Ca efflux from cultured vascular smooth muscle cells consists of two major mechanisms; one is dependent on extracellular sodium, mediated by the Na^+ -Ca^2+ exchanger (Na^+ - dependent Ca^2+ efflux), and the other is independent of extracellular sodium but is mediated by the Ca^2+ pump (Na^+ - independent Ca^2+ efflux). The effect of striatol on the efflux of calcium (^45 Ca^2+) from rat thoracic aorta smooth muscle cells in culture was studied. ^45 Ca^2+ efflux is a measure of plasma membrane Ca^2+ -ATPase (plus Na^+ : Ca^2+ exchange) in intact (whole) cells.

[6] = tested on: purified erythrocyte Ca^2+ -ATPase; experiment: Inhibition of purified erythrocyte Ca^2+ -ATPase; format: biochemical; conditions: purified enzyme
[7] = absence of calmodulin, read-out: IC50 (-CaM)
[8] = presence of calmodulin (0.3 μM), read-out: IC50 (+CaM)
[9] = read-out: INHIBITION OF Ca^2+ -ATPase IC50

T1 sequence (P23634 1-1205 isoform P23634-6): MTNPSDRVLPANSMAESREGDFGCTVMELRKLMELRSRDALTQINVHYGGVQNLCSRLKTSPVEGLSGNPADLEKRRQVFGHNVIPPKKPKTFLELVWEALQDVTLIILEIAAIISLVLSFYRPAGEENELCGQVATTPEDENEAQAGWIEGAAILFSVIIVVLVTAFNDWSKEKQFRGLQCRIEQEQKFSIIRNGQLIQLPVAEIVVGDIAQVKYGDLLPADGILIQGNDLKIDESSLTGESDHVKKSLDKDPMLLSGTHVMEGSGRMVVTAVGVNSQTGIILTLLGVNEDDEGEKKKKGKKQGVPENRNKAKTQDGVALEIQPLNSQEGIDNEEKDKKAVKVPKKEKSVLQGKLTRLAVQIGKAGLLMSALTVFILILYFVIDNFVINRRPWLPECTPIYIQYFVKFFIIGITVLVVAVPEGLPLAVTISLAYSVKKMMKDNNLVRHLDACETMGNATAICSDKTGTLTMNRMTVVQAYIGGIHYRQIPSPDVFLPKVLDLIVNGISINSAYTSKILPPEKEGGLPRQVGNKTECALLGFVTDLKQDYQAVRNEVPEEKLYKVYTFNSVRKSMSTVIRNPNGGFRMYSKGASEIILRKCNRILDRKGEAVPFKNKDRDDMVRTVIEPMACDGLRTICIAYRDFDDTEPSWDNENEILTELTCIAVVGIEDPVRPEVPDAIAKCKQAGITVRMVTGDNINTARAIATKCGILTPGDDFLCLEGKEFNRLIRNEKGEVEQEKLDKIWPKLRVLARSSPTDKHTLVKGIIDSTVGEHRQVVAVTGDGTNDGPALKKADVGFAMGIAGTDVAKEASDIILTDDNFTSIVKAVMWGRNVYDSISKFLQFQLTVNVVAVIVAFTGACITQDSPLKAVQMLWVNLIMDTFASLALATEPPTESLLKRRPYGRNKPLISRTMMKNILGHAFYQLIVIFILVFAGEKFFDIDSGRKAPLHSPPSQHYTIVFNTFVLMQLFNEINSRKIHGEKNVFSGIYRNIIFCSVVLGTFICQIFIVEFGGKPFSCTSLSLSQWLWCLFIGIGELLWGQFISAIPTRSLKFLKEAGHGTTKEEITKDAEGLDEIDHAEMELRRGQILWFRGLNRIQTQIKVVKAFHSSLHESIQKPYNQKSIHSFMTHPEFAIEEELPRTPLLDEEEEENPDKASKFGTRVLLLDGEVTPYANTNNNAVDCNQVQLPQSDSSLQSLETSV
T1 sequence (P35613 140-385 partner limits assumed): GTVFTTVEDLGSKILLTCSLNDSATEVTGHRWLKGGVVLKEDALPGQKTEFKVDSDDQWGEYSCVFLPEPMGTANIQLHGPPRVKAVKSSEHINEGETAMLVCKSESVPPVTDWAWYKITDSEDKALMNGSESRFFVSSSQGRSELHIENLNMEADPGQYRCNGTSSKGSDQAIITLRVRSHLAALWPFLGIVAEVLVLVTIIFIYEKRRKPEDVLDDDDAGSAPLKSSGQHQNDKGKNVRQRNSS

SMILES: CCCCCCCCCc1ccccc1O [2-nonylphenol]
pIC50 ([1]; IC50 (+CaM), presence of calmodulin (0.3 μM)): 4.40 | pIC50 ([1]; IC50 (-CaM), absence of calmodulin): 4.44 | LC50 ([2]; 24 h): 480 nM and 0.11 µg/mL | pIC50 [3]: 4.52 | inhibition at 100 µM [3]: 95%

SMILES: COc1cc([C@@H]2c3cc4c(cc3[C@H](O)[C@H]3COC(=O)[C@H]23)OCO4)cc(OC)c1OC [podophyllotoxin, reference compound]
LC50 ([2]; 24 h): 3.8 µM and 1.6 µg/mL | LC50 [4]: 5.8 µM | LC50 brine shrimp (Meyer et al.) [4]: 2.4 µg/mL (≈ 5.79 µM)

SMILES: Cc1c(O)cc(CCCCCCCCCCCCCCc2cc(O)c(C)c(O)c2)cc1O [striatol, 1,14-bis(3,5-dihydroxy-4-methylphenyl)tetradecane]
inhibition of ^45 Ca^2+ efflux ([5]; 20 μM, 5 min): partial inhibition | inhibition of ^45 Ca^2+ efflux ([5]; 20 μM, 10 min): partial inhibition | inhibition of ^45 Ca^2+ efflux ([5]; 50 μM, 30 min): complete inhibition | toxicity to brine shrimp (in words) ([2]; 24 hours): relatively low toxicity | LC50 ([2]; 24 hours): 11 µM and 4.9 µg/mL | inhibitory activity with purified erythrocyte Ca^2+ -ATPase [6]: confirmed | inhibition at 100 µM ([3]; at 100 μM): 98% | pIC50 [3, 9]: 4.80

Now from value to compound, other results behind:

pIC50 [1, 7]: 5.08 | pIC50 [1, 8]: 5.05 | inhibition at 25 µM [3]: 100% | Ca^2+ -ATPase inhibitory activity relative to striatol [3]: two-fold higher | pIC50 [3, 9]: 5.12
SMILES: Oc1ccccc1CCCCCCCCCCc1ccccc1O [1,10-bis(2-hydroxyphenyl)decane]
Ca^2+ -ATPase inhibitory activity (in words) [1]: most potent inhibitors of plasma Ca^2+ -ATPase among the synthesised substances | toxicity to brine shrimp (in words) ([2]; 24 hours): moderately toxic | LC50 ([2]; 24 hours): 1.9 µM and 0.62 µg/mL | Ca^2+ -ATPase inhibitory activity (in words) [3]: strongest Ca^2+ -ATPase inhibition among the synthesised phenolic compounds

pIC50 [1, 7]: 4.90 | pIC50 [1, 8]: 4.89 | inhibition at 25 µM [3]: 100% | Ca^2+ -ATPase inhibitory activity relative to striatol [3]: two-fold higher | pIC50 [3, 9]: 5.08
SMILES: Oc1ccccc1CCCCCCCCCCCCc1ccccc1O [1,12-bis(2-hydroxyphenyl)dodecane]
LC50 ([2]; 24 hours): 2.6 µM and 0.94 µg/mL | Ca^2+ -ATPase inhibitory activity (in words) [3]: strongest Ca^2+ -ATPase inhibition among the synthesised phenolic compounds

pIC50 [1, 7]: 4.10 | pIC50 [1, 8]: 4.00 | inhibition at 100 µM ([3]; at 100 μM): 68% | pIC50 [3, 9]: 4.16
SMILES: CCCCCCCCCCCCc1ccc(O)cc1O [4-dodecylresorcinol, reference compound]
LC50 ([2]; 24 hours): 8.8 µM and 2.4 µg/mL | Ca^2+ -ATPase inhibitory activity (in words) [3]: most potent among the alkylresorcinols tested

pIC50 [1, 7]: 4.70
SMILES: C=C(C)C(CC=C(C)C)Cc1c(O)cc(O)c2c1OC(c1c(O)cccc1O)CC2=O (stereo not shown) [5,7,2',6'-tetrahydroxy-8-lavandulylflavanone]
LC50 ([2]; 24 hours): > 100 µM and > 42 µg/mL

— patent publication US5859067A, “Use of natural products and related synthetic compounds for the treatment of cardiovascular disease” (priority 1993, dated 1999)
